The values that follow come from paper PMC10376129, “Mechanistic Understanding of Idiosyncratic Drug-Induced Hepatotoxicity Using Co-Cultures of Hepatocytes and Macrophages” (Antioxidants, 2023).

Entries after “also recorded” stand apart in the source; their conditions may differ.

The subject of data set [1] is HepG2 cells. In words: MTT cytotoxicity in HepG2 monocultures. Particulars: for CC50: Homo sapiens, HepG2 monoculture, 24 h exposure, in presence of LPS and IFN-γ, read-out: IC50 values; for effects on the viability: LPS and IFN-γ together, HepG2 cells, Supplementary Figure S1. Type of data set: cell-based, human. As for the experimental part:
HepG2 cells (ECACC No. 85011430) were cultured in Ham’s F-12/Leibovitz L-15 (1:1 v/v), supplemented with 7% FBS, 50 U of penicillin/mL, and 50 μg of streptomycin/mL.
HepG2 cells were seeded at a density of 47,000 cells/cm^2 as a monoculture control for all the experiments.
(§1) For the toxicity studies, HepG2 cells alone or in co-culture with different proportions of M1 macrophages were seeded in 96-well plates (15,000 cells/well) and were allowed to grow and equilibrate for 24 h. Then, cells were exposed for 24 h to eight concentrations of the tested compounds (TVX, LVX, TGZ, RGZ). Each experimental condition was assayed in triplicate wells. Test compounds were diluted in DMSO, and then easily diluted in the culture medium to obtain the desired final concentrations (Table 1). The final DMSO concentration in the culture medium never exceeded 0.5% (v/v), and the control cultures were treated with the same amount of solvent.
(§2) Cytotoxicity was assessed by means of the tetrazolium reduction colorimetric assay (MTT test) as previously described in detail.

The subject of data set [2] is co-cultures of HepG2 and M1-THP-1 cells. In words: MTT cytotoxicity in direct co-cultures of HepG2 and M1-THP-1 macrophages. Type of data set: cell-based. Particulars: Homo sapiens, HepG2, 24 h, 24 h exposure. As for the experimental part: (§3) THP-1 cells were differentiated to macrophages via incubation with phorbol-12-myrsitate 13-acetate (PMA, 20 or 50 ng/mL) for 72 h. After differentiation, THP-1 cells became adherent with typical macrophage morphology. To generate M1 macrophages, cells were then stimulated with LPS (1 µg/mL) in the presence or absence of interferon γ (IFN-γ) (20 ng/mL) as described in Figure 1.
For subculturing purposes, cells (HepG2 or THP-1) were detached via treatment with 0.25% trypsin/0.02% EDTA at 37 °C. In order to determine the effect of pro-inflammatory macrophages on HepG2 cells, different co-culture conditions were tested. Co-culture proportions were 1:10, 1:5, and 1:2 (M1:HepG2), respectively. Cells were seeded at 47,000 cells/cm^2 per condition and co-culture media consisted of HepG2 and M1-THP-1 cell culture media (1:1). The schedule followed for co-culturing HepG2 cells and M1-THP-1 macrophages is exemplified in Figure 2.
as §1, §2

Data set [3] deals with HepG2 monocultures and different co-cultures of HepG2 and M1-THP-1 cells. Kind of data set: Concentration-dependent toxicity compared across test systems (MTT viability). Type of data set: cell-based. The following applies: 24 h exposure; for concentrations producing significant cell death / decrease in viability: Figure 6; for effect on viability in co-cultures compared to monocultures of HepG2 cells: co-culture ratios 1:10, 1:5, 1:2. As for the experimental part:
as §1, §2
Data represent triplicate measurements and are expressed as the mean ± SD. Student’s t-test was used for statistical evaluations between two groups, whereas one-way ANOVA followed by Tukey’s multiple comparisons test was used when comparing 3 or more groups. The level of significance was chosen as p < 0.05 and calculated using GraphPad Prism v. 8.4.3.

Data set [4] has as its system HepG2 cells and co-cultures at different ratios (1:10, 1:5, and 1:2). Kind of data set: Gene expression (RT-qPCR) of oxidative stress, GSH-related and apoptotic genes in treated cultures. Type of data set: cell-based, human. From the text: Total RNA was extracted using the RNeasy Plus Mini Kit (Qiagen, Madrid, Spain), and was reverse transcribed as described elsewhere. Diluted cDNA was amplified using LightCycler DNA Master SYBR Green I (Roche Applied Science, Barcelona, Spain) and the appropriate primers (Supplementary Table S2) were amplified using a LightCycler 480 Instrument (Roche Applied Science, Barcelona, Spain). For normalization, porphobilinogen deaminase (PBGD), TATA box binding protein (TBP), Large Ribosomal Subunit Protein UL10 (RPLP0), and actin were used. During each amplification, a reference calibrator cDNA, made from a pool of human livers, was included. The relative mRNA expression was calculated using the LightCycler Relative Quantification Analysis software verson 1.5.0.39. Based on PCR efficiencies and the cycle thresholds, the relative concentration of the target and reference cDNAs and their ratio were determined. Additionally, gene expression analysis of test systems alone or treated with the selected toxic compounds was also performed as indicated in Section 2.3.2. For toxicotranscriptomics studies, cells were seeded in P12-well plates at a density of 47,000 cells/cm^2.
Background: Quantitative PCR measures a nucleic acid by following its amplification.

On the set-up of data set [5]: method as in PMID 18524759. Particulars: cited from earlier work.
Data set [6] has as its system THP-1 cells. In words: Viability of THP-1 cells after differentiation to pro-inflammatory macrophages. The data set is classed as cell-based, human. The following applies: PMA 50 ng/mL for differentiation followed by LPS and IFN-γ. As for the experimental part: as §3
The mark [7] stands for this setting: 100 µM, compared to non-treated cells.

For the molecule `CN(CCOc1ccc(CC2SC(=O)NC2=O)cc1)c1ccccn1` (stereo not drawn) [Rosiglitazone], in data set [1], the CC50 is more than 250 µM. Besides, the IC50 in data set [2] (Co-culture 1.10 (M1:HepG2)), in data set [2] (Co-culture 1.2 (M1:HepG2)) and in data set [2] (Co-culture 1.5 (M1:HepG2)) was more than 250 µM throughout. The “concentrations producing significant cell death / decrease in viability” value in data set [3] was “higher than 200 µM”. For the same molecule, in data set [3], the “effect on viability in co-cultures compared to monocultures of HepG2 cells” value (shortened to “effect … compared to monocultures of HepG2 cells”) was “no significant differences between the test systems were found”. For the same molecule, the “mRNA levels of Nfr2 pathway, GSH-related enzymes and apoptotic genes” value (shortened to “mRNA levels of Nfr2 pathway”) in data set [4] (setting [7]) was “produced increases in the expression of GCLM, TXNRD1, and DDIT”.
For `C[C@H]1COc2c(N3CCN(C)CC3)c(F)cc3c(=O)c(C(=O)O)cn1c23` [Levofloxacin], in data set [1], the CC50 was more than 800 µM. For the same molecule, the IC50 in data set [2] (Co-culture 1.10 (M1:HepG2)), in data set [2] (Co-culture 1.2 (M1:HepG2)) and in data set [2] (Co-culture 1.5 (M1:HepG2)) was more than 800 µM throughout. In addition, the “concentrations producing significant cell death / decrease in viability” value in data set [3] is more than 750 µM. In addition, the “effect … compared to monocultures of HepG2 cells” value in data set [3] is reported as “no synergic effect was observed”. Besides, the “mRNA levels of Nfr2 pathway” value in data set [4] (25 µM, 24 h, compared to non-treated cultures) is listed as “did not significantly change the gene expression”. In data set [5], the highest concentration (Cmax) (usually the maximum level reached in the sampled fluid or tissue) is 15.7 µM.
Consider lipopolysaccharide [LPS], for which the “effects on the viability” value in data set [1] is “No significant effects on the viability”.
As for `N[C@@H]1[C@H]2CN(c3nc4c(cc3F)c(=O)c(C(=O)O)cn4-c3ccc(F)cc3F)C[C@@H]12` [Trovafloxacin], the CC50 in data set [1] was 675 µM. Also, the results for the IC50 in data set [2] (Co-culture 1.10 (M1:HepG2)), in data set [2] (Co-culture 1.2 (M1:HepG2)) and in data set [2] (Co-culture 1.5 (M1:HepG2)) were 531 µM, 74 µM and 529 µM, respectively. In data set [3], the “concentrations producing significant cell death / decrease in viability” value was “higher than 50 µM”. Moreover, the “effect … compared to monocultures of HepG2 cells” value in data set [3] is on record as “A synergistic effect was detected in the co-cultures”. Also, the “mRNA levels of Nfr2 pathway” value in data set [4] (25 µM, 24 h, compared to non-treated cultures, listed as TVX) was “reduced the GSTT1, GSTT2, GSTA2, GSTA4, NNQO1, GPX1, GPX2, and GPX4 levels in all the culture conditions; also recorded: Increased levels of AT4 and SOD2”. The Cmax in data set [5] is 4.1 µM.
The molecule `CCCCCCCCCCCCCC(=O)O[C@@H]1[C@@H](C)[C@@]2(O)[C@@H](C=C(CO)C[C@]3(O)C(=O)C(C)=C[C@@H]23)[C@@H]2C(C)(C)[C@]12OC(C)=O` [PMA, phorbol-12-myrsitate 13-acetate] displayed a viability after differentiation in data set [6] of 79 ± 5.
In the case of `Cc1c(C)c2c(c(C)c1O)CCC(C)(COc1ccc(CC3SC(=O)NC3=O)cc1)O2` (stereo not drawn) [Troglitazone], in data set [1], the CC50 amounted to 223 µM. For the same molecule, the IC50 (commonly the concentration at which inhibition is half-maximal) in data set [2] (Co-culture 1.10 (M1:HepG2)) was 208 µM; in data set [2] (Co-culture 1.2 (M1:HepG2)), 188 µM; in data set [2] (Co-culture 1.5 (M1:HepG2)), 203 µM. Also, the “concentrations producing significant cell death / decrease in viability” value in data set [3] is “higher than 100 µM”. The “effect … compared to monocultures of HepG2 cells” value in data set [3] is “decrease in the viability was more significant in the co-cultures at the highest ratios of M1 cells”. Moreover, the “mRNA levels of Nfr2 pathway” value in data set [4] (setting [7]) is “increased the GCLM, DDIT, and TXNRD1 levels and reduced the GSTA2, GSTA4, GSTT1, and GPX2 levels”.

B1: interferon γ (protein, UniProt P01579 24-161, looked up)
Interferon gamma: QDPYVKEAENLKKYFNAGHSDVADNGTLFLGILKNWKEESDRKIMQSQIVSFYFKLFKNFKDDQSIQKSVETIKEDMNVKFFNSNKKKRDDFEKLTNYSVTDLNVQRKAIHELIQVMAELSPAAKTGKRKRSQMLFRG
notes: cytokine used with LPS to generate M1 macrophages
As to B1, the “effects on the viability” value in data set [1] was “No significant effects on the viability”.
